# Experiment: Compound is evaluated for inhibition of aspartate transcarbamoylase (ATCase).
# Parameters: species or system Escherichia coli
row,Structure (SMILES),Ki
1,O=C(O)CC(SCP(=O)(O)O)C(=O)O (configuration not stated),1.1 mM

# Experiment: Compound is evaluated for inhibition of aspartate transcarbamoylase (ATCase)
# Parameters: species or system Escherichia coli
row,Structure (SMILES),Ki
1,O=C(O)CC(CS(=O)(=O)CP(=O)(O)O)C(=O)O (configuration not stated),650 µM
2,O=C(O)CC(OC(=O)CP(=O)(O)O)C(=O)O (configuration not stated),2 µM
3,O=C(O)CC(CSCP(=O)(O)O)C(=O)O (configuration not stated),430 µM

# Continued, values first:
row,Ki,Structure (SMILES)
1,2300 µM,O=C(O)CC(C[S+]([O-])CP(=O)(O)O)C(=O)O (configuration not stated)
2,500 µM,O=C(O)CC(NS(=O)(=O)CP(=O)(O)O)C(=O)O (configuration not stated)
3,0.03 µM,O=C(O)CC(NC(=O)CP(=O)(O)O)C(=O)O (configuration not stated) [SPARFOSIC ACID]

# From ChEMBL document CHEMBL1122846, “Design and synthesis of new transition-state analogue inhibitors of aspartate transcarbamylase” (J Med Chem, 1985)
